Structures can show the parent of a compound that is named as a salt.
Key:
Assay type in all cases: physicochemical
[1] = Polymorph screening test, suspension method (crystal form by XRPD after stirring in solvent); conditions: for Crystal form (XRPD): free base screening, 3 days
Description: (or 50° C.) for 3 days in the dark and centrifuged to remove the supernatant; the resulting precipitate was dried under vacuum (25° C., −0.1 MPa); and the resulting solid was collected and subjected to the XRPD test. The results are as follows:
(or 50° C./80° C.) for 3 days in the dark and centrifuged to remove the supernatant; and the resulting precipitate was dried under vacuum (25° C., −0.1 MPa).
(or 50° C.) for 3 days in the dark and centrifuged to remove the supernatant; and the resulting precipitate was dried under vacuum (25° C., −0.1 MPa).

[2] = Stability of crystal forms under stability test conditions (appearance, XRPD, HPLC); conditions: for Total impurities: HPLC
Description: The samples were placed under the stability conditions shown in the following table, sampling was performed at the corresponding time points, and the samples were subjected to appearance and XRPD tests. […] The stability results obtained are recorded in the following table. […] The samples were placed under the stability test conditions shown in the following table, sampling was performed at different time points, and the samples were subjected to the XRPD test. […] The samples were placed in an open state under the stability test conditions of 40° C./75% RH and 90% RH; and the samples were placed in a closed state at 60° C. in a light box (the test samples in the dark were placed in the same manner as the illumination test samples, and the treatment was performed in the dark). Sampling was performed at different time points, and the samples were subjected to the XRPD test. […] The samples were placed under the stability conditions shown in the following table, sampling was performed at the corresponding time points, and the samples were subjected to appearance and XRPD tests. […] The stability results obtained are recorded in the following table.

[3] = Dynamic vapor sorption (DVS) hygroscopicity test; conditions: 25° C. and 80% RH
Excerpt: In the present disclosure, the DVS test parameters are set as follows: [table]

[4] = 0 d, listed as Phosphate crystal form E

SMILES: Cc1cc(Nc2ncc(Cl)c(Nc3ccccc3S(=O)(=O)C(C)C)n2)c(OC(C)C)cc1C1=CCN(C2CCOCC2)CC1 [listing 1 of 3 here]
- Crystal form (XRPD) ([1]; suspension in 1,4-Dioxane, 25° C.): Crystal form G
- Crystal form (XRPD) ([1]; suspension in 1,4-Dioxane, 50° C.): Crystal form D
- Crystal form (XRPD) ([1]; suspension in 2-MeTHF, 25° C.): Crystal form D
- Crystal form (XRPD) ([1]; suspension in 2-MeTHF, 50° C.): Crystal form D
- Crystal form (XRPD) ([1]; suspension in ACN/water (1/1, v/v), 25° C.): Crystal form D
- Crystal form (XRPD) ([1]; suspension in ACN/water (1/1, v/v), 50° C.): Crystal form D
- Crystal form (XRPD) ([1]; suspension in Acetone, 25° C.): Crystal form E
- Crystal form (XRPD) ([1]; suspension in Acetone, 50° C.): Crystal form E
- Crystal form (XRPD) ([1]; suspension in Acetone/water (1:1, v/v), 25° C.): Crystal form D
- Crystal form (XRPD) ([1]; suspension in Acetone/water (1:1, v/v), 50° C.): Crystal form D
- Crystal form (XRPD) ([1]; suspension in Acetonitrile, 25° C.): Crystal form D
- Crystal form (XRPD) ([1]; suspension in Acetonitrile, 50° C.): Crystal form D
- Crystal form (XRPD) ([1]; suspension in Cyclohexane, 25° C.): Crystal form D
- Crystal form (XRPD) ([1]; suspension in Cyclohexane, 50° C.): Crystal form D
- Crystal form (XRPD) ([1]; suspension in Dichloromethane, 25° C.): No solid sample was obtained
- Crystal form (XRPD) ([1]; suspension in Dichloromethane, 50° C.): No solid sample was obtained
- Crystal form (XRPD) ([1]; suspension in Ethanol, 25° C.): Crystal form B
- Crystal form (XRPD) ([1]; suspension in Ethanol, 50° C.): Crystal form D
- Crystal form (XRPD) ([1]; suspension in Ethyl acetate, 25° C.): Crystal form D
- Crystal form (XRPD) ([1]; suspension in Ethyl acetate, 50° C.): Crystal form D
- Crystal form (XRPD) ([1]; suspension in Isopropanol, 25° C.): Crystal form C
- Crystal form (XRPD) ([1]; suspension in Isopropanol, 50° C.): Crystal form D
- Crystal form (XRPD) ([1]; suspension in Isopropyl acetate, 25° C.): Crystal form D
- Crystal form (XRPD) ([1]; suspension in Isopropyl acetate, 50° C.): Crystal form D
- Crystal form (XRPD) ([1]; suspension in MA, 25° C.): Crystal form D
- Crystal form (XRPD) ([1]; suspension in MA, 50° C.): Crystal form D
- Crystal form (XRPD) ([1]; suspension in MEK, 25° C.): Crystal form D
- Crystal form (XRPD) ([1]; suspension in MEK, 50° C.): Crystal form D
- Crystal form (XRPD) ([1]; suspension in MIBK, 25° C.): Crystal form D
- Crystal form (XRPD) ([1]; suspension in MIBK, 50° C.): Crystal form D
- Crystal form (XRPD) ([1]; suspension in MeOH/water (1:1, v/v), 25° C.): Crystal form D
- Crystal form (XRPD) ([1]; suspension in MeOH/water (1:1, v/v), 50° C.): Crystal form D
- Crystal form (XRPD) ([1]; suspension in Methanol, 25° C.): Crystal form A
- Crystal form (XRPD) ([1]; suspension in Methanol, 50° C.): Crystal form I
- Crystal form (XRPD) ([1]; suspension in Methyl tert-butyl ether, 25° C.): Crystal form D
- Crystal form (XRPD) ([1]; suspension in Methyl tert-butyl ether, 50° C.): Crystal form C
- Crystal form (XRPD) ([1]; suspension in Tetrahydrofuran, 25° C.): Crystal form F
- Crystal form (XRPD) ([1]; suspension in Tetrahydrofuran, 50° C.): No solid sample was obtained
- Crystal form (XRPD) ([1]; suspension in Toluene, 25° C.): Crystal form D
- Crystal form (XRPD) ([1]; suspension in Toluene, 50° C.): No solid sample was obtained
- Crystal form (XRPD) ([1]; suspension in Water, 25° C.): Crystal form H
- Crystal form (XRPD) ([1]; suspension in Water, 50° C.): Crystal form J
- Crystal form (XRPD) ([1]; suspension in n-Heptane, 25° C.): Crystal forms C + D
- Crystal form (XRPD) ([1]; suspension in n-Heptane, 50° C.): Crystal forms C + D
- Crystal form (XRPD) ([1]; suspension in n-Hexane, 25° C.): Crystal form D
- Crystal form (XRPD) ([1]; suspension in n-Hexane, 50° C.): Crystal form D

SMILES: Cc1cc(Nc2ncc(Cl)c(Nc3ccccc3S(=O)(=O)C(C)C)n2)c(OC(C)C)cc1C1=CCN(C2CCOCC2)CC1 [one equivalent of tartrate crystal form B]
- stability of crystal form in solvent, suspension method ([1]; acetone, tetrahydrofuran, n-heptane, or dioxane): relatively good stability
- crystal form when stirred in solvent ([1]; acetone, tetrahydrofuran, n-heptane, or dioxane at 40° C.): remained stable

SMILES: Cc1cc(Nc2ncc(Cl)c(Nc3ccccc3S(=O)(=O)C(C)C)n2)c(OC(C)C)cc1C1=CCN(C2CCOCC2)CC1 [one equivalent of citrate crystal form B]
- Total impurities ([2]; 0 d): 0.18%
- Total impurities ([2]; 40° C./75% RH, 1 M): 0.19%
- Total impurities ([2]; 40° C./75% RH, 10 d): 0.19%
- Total impurities ([2]; 60° C., 1 M): 0.22%
- Total impurities ([2]; 60° C., 10 d): 0.19%
- Total impurities ([2]; 90% RH, 1 M): 0.19%
- Total impurities ([2]; 90% RH, 10 d): 0.18%
- Total impurities ([2]; Illumination, 5 d): 0.48%
- Appearance ([2]; Illumination, 5 d and 10 d): Color deepening
- Total impurities ([2]; Illumination, 10 d): 0.55%
- stability of crystal form in solvents, citrate polymorph screening test ([1]; in solvents): relatively good stability
- crystal form when stirred in solvent ([1]; methanol, ethanol, acetonitrile, acetone, ethyl acetate, dichloromethane, tetrahydrofuran, n-heptane, dioxane, or mixed solvent of methanol, acetonitrile, or acetone with water, 40° C.): remained stable

SMILES: Cc1cc(Nc2ncc(Cl)c(Nc3ccccc3S(=O)(=O)C(C)C)n2)c(OC(C)C)cc1C1=CCN(C2CCOCC2)CC1 [crystal form C]
- hygroscopic weight gain (DVS curve) [3]: 0.31±0.005%

SMILES: Cc1cc(Nc2ncc(Cl)c(Nc3ccccc3S(=O)(=O)C(C)C)n2)c(OC(C)C)cc1C1=CCN(C2CCOCC2)CC1 [listing 2 of 3 here]
- Total impurities [2, 4]: 1.24%
- Crystal form (XRPD) [2, 4]: Significant change
- Total impurities ([2]; 40° C./75% RH, 1 M, listed as Phosphate crystal form E): 1.69%
- Total impurities ([2]; 40° C./75% RH, 10 d, listed as Phosphate crystal form E): 1.79%
- Crystal form (XRPD) ([2]; 40° C./75% RH, 10 d and 1 M, listed as Phosphate crystal form E): Significant change
- Total impurities ([2]; 60° C., 1 M, listed as Phosphate crystal form E): 2.74%
- Total impurities ([2]; 60° C., 10 d, listed as Phosphate crystal form E): 3.26%
- Crystal form (XRPD) ([2]; 60° C., 10 d and 1 M, listed as Phosphate crystal form E): Significant change
- Total impurities ([2]; 90% RH, 1 M, listed as Phosphate crystal form E): 3.03%
- Total impurities ([2]; 90% RH, 10 d, listed as Phosphate crystal form E): 2.13%
- Crystal form (XRPD) ([2]; 90% RH, 10 d and 1 M, listed as Phosphate crystal form E): Significant change
- Total impurities ([2]; Illumination, 5 d, listed as Phosphate crystal form E): 3.02%
- Crystal form (XRPD) ([2]; Illumination, 5 d and 10 d, listed as Phosphate crystal form E): Significant change
- Total impurities ([2]; Illumination, 10 d, listed as Phosphate crystal form E): 5.00%

SMILES: Cc1cc(Nc2ncc(Cl)c(Nc3ccccc3S(=O)(=O)C(C)C)n2)c(OC(C)C)cc1C1=CCN(C2CCOCC2)CC1 [listing 3 of 3 here]
- Total impurities ([2]; 0 d, listed as Tartrate crystal form C): 0.28%
- Total impurities ([2]; 40° C./75% RH, 1 M, listed as Tartrate crystal form C): 0.38%
- Total impurities ([2]; 40° C./75% RH, 10 d, listed as Tartrate crystal form C): 0.37%
- Total impurities ([2]; 60° C., 1 M, listed as Tartrate crystal form C): 0.47%
- Total impurities ([2]; 60° C., 10 d, listed as Tartrate crystal form C): 0.41%
- Total impurities ([2]; 90% RH, 1 M, listed as Tartrate crystal form C): 0.59%
- Total impurities ([2]; 90% RH, 10 d, listed as Tartrate crystal form C): 0.48%
- Total impurities ([2]; Illumination, 5 d, listed as Tartrate crystal form C): 1.01%
- Appearance ([2]; Illumination, 5 d and 10 d): Color deepening
- Total impurities ([2]; Illumination, 10 d, listed as Tartrate crystal form C): 1.04%
